Consider four compounds from ChEMBL document CHEMBL1122691, “Development of an affinity ligand for purification of alpha 2-adrenoceptors from human platelet membranes” (J Med Chem, 1984).

What is called Ki is the dissociation constant of the complex between target and ligand, obtained from inhibition or displacement. Lower therefore signals a stronger hold on the target.

For assay [1], the target named is T1, Adrenergic receptor alpha-2 (Homo sapiens, UniProt P08913+P18825+P18089).
T1 sequence (P08913 whole entry): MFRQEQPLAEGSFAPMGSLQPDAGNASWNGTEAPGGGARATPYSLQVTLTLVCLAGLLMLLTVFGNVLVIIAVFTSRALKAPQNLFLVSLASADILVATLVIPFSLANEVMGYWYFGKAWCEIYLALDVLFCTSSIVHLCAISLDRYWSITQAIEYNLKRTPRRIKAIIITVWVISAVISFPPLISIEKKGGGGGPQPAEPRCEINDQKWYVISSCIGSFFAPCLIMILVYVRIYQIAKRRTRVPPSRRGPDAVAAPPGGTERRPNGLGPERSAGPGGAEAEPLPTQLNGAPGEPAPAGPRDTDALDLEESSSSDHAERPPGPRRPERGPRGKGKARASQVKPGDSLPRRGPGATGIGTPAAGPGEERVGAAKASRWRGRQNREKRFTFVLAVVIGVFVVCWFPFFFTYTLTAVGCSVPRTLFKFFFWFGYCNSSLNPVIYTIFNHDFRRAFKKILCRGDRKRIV
T1 sequence (P18825 whole entry): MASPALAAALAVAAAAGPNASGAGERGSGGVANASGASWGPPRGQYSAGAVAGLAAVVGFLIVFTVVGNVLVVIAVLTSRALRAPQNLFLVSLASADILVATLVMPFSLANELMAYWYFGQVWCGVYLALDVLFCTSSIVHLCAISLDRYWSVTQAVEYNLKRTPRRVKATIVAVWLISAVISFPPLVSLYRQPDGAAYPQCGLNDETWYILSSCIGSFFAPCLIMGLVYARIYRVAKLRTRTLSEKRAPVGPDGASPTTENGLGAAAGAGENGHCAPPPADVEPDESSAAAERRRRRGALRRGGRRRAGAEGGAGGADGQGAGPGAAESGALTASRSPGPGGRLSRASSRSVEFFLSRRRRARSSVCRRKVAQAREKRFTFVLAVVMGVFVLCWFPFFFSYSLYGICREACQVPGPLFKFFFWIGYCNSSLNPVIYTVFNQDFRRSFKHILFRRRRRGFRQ
T1 sequence (P18089 whole entry): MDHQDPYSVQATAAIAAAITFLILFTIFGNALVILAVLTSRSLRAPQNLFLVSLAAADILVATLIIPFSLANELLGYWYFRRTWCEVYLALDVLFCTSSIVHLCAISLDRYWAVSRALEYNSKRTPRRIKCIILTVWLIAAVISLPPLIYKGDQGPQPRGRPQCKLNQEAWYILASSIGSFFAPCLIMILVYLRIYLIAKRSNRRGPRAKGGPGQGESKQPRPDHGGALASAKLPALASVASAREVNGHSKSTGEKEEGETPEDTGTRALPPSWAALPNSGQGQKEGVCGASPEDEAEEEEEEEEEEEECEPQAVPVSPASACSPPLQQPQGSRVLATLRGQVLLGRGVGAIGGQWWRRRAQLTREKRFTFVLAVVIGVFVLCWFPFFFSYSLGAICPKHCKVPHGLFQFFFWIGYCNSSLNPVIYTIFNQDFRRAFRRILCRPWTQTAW
It is filed as cell membranes.

The test system of assay [2] is Adrenergic receptor alpha-2 (Cavia porcellus). The settings on record: Cardiac atrium.
In assay [3] the target is T1, Adrenergic receptor alpha-2. Briefly: Binding affinity against alpha-2-adrenergic receptor using 10 nM [3H]yohimbine in preparations in human platelet membranes from three separate experiments using 10 inhibitor concentrations. It is filed as cell membranes.
Assay [4] has the same target. Briefly: Binding affinity against alpha-2-adrenergic receptor using 10 nM [3H]yohimbine in human platelet membranes from four to five separate experiments using 12 inhibitor concentrations. It is filed as cell membranes.

For the compound `C=CCOc1cccc2c1CCN(C)CC2`, the Ki in assay [1] was 338 nM. This compound returned a K beta in assay [2] of 206 nM.
Taken in the same sequence, the figures for `C=CCN1CCc2cccc(Cl)c2CC1` were 6.1 nM and 60 nM.
The compound `C=CCOc1ccc2c(c1)CCNCC2` came in with a Ki in assay [3] of 232 nM.
As to `C=CCOc1ccc(Cl)c2c1CCN(C)CC2`, the K beta in assay [2] turned out to be 150 nM. The compound further registered a Ki in assay [4] of 48 nM.
